# Measured values from ChEMBL document CHEMBL1201862, “PubChem BioAssay data set” (2004).
# The source made the active and inactive calls.
# Experiments:
# Genome polyprotein = Genome polyprotein (dengue virus type 2, UniProt P29990); test: flavivirus cap methylation enzyme inhibition – biochemical, confirmation dose response, primary screen (AID 588689); format: functional
# Large T antigen = Large T antigen (Simian virus 40, UniProt P03070); format: functional, Betapolyomavirus macacae;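 further: Confirmatory-stage PubChem screen for compounds that inhibit SV40 T antigen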
# [1] = target: FAD-linked sulfhydryl oxidase ALR (Homo sapiens, UniProt P55789); test: ALR-catalysed DTT oxidation blockers – biochemical, H2O2 detection, luminescence, cherry-pick, dose response (AID 493248)
# cells [2] = format: functional, cell-based
# [3] = target: Luciferin 4-monooxygenase (Photinus pyralis, UniProt P08659); test: inhibition of purified Photinus pyralis luciferase – biochemical, luminescence, dose response (AID 1891)
# cells [4] = format: functional, cell-based; remark: listed apart in the source
# [5] = Luminescence Cell-Based Dose Confirmation HTS to Identify Inhibitors of Platelet Dense Granule Release. [Related pubchem assays: 1663 (Primary HTS), 1678 (Summary of Project)]; format: functional
# [6] = viability of uninfected HEp-2 cells – cell-based, HTS, cytotoxicity control for RSV inhibitor project, dose response (AID 2410); format: functional; details: human respiratory syncytial virus
# [7] = luciferase reporter signal suppression in cells – H4 neuroglioma cells, luminescence, dose response (AID 1990); format: functional, cell-based
# [8] = target: T1, Ubiquitin-conjugating enzyme E2 N (Homo sapiens, UniProt P61088); format: functional;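 further: Dose-response confirmation in a TR-FRET assay detecting UBC13-driven polyubiquitin chain formation, inhibition measured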
# T1 sequence (P61088 whole entry): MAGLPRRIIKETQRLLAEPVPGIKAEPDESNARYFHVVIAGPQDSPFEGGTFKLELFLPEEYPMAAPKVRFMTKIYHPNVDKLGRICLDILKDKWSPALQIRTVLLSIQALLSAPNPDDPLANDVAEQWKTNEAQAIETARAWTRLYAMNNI
# [9] = viability of HCT116 lacking mutant beta-catenin – cell-based, human colon tumor, dose response (AID 1045); format: functional;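 further: HCT116 colon tumor cells with beta catenin knocked out; cells exposed to compound for 60 hours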
# Cytochrome P450 3A4 = Cytochrome P450 3A4 (Homo sapiens, UniProt P08684);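 further: CYP3A4 tested as one member of a cytochrome P450 panel screen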
# [10] = Luminescence Cell-Based Dose Response HTS to Identify Inhibitors of 5'UTR Stem-Loop Driven Prion Protein mRNA Translation in H4 Neuroglioblastoma Cells. [Related pubchem assays: 1827 (Project Summary), 1813 (Primary HTS)]; format: functional
# [11] = alpha-synuclein stem-loop luciferase translation blockers – H4 neuroglioma cells, luminescence, confirmation (AID 1988); format: functional, cell-based
# [12] = viability of PTEN-deleted HCT116 cells – cell-based, HCT116 PTEN knockout, dose response (AID 1047); format: functional;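 further: HCT116 colon tumor cells with PTEN knocked out; cells exposed to compound for 60 hours before readout; potency for loss of cell viability measured by luminescence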
# BJ [13] = test: BJ-TERT fibroblast viability loss – cell-based, RAS-independent, luminescence, dose response (AID 1933); format: functional; details: Homo sapiens
# BJ [14] = test: cells; format: functional, cell-based; details: Homo sapiens
# [15] = DRD fibroblast viability loss – cell-based, non-viral oncogenic, luminescence, dose response (AID 1934); format: functional; details: Homo sapiens
# Paired box protein Pax-8 = Paired box protein Pax-8 (Homo sapiens, UniProt Q06710); test: PAX8 transcriptional activity inhibition in RMG-I – RMG-I cells, luciferase, cherry-pick, dose response (AID 687027); format: functional, cell-based;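 further: luciferase reporter driven by Pax8 target thyroperoxidase promoter measured by SteadyGlo luminescence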
# Protein RecA = target: T2, Protein RecA (Mycobacterium tuberculosis, UniProt P9WHJ3); test: Fluorescence Cell-Free Homogeneous Dose Retest to Identify Inhibitors of RecA-Intein Splicing Activity. [Related pubchem assays (depositor defined):AID2097, AID2223, AID489010, AID492950]; format: functional
# T2 sequence (P9WHJ3 whole entry): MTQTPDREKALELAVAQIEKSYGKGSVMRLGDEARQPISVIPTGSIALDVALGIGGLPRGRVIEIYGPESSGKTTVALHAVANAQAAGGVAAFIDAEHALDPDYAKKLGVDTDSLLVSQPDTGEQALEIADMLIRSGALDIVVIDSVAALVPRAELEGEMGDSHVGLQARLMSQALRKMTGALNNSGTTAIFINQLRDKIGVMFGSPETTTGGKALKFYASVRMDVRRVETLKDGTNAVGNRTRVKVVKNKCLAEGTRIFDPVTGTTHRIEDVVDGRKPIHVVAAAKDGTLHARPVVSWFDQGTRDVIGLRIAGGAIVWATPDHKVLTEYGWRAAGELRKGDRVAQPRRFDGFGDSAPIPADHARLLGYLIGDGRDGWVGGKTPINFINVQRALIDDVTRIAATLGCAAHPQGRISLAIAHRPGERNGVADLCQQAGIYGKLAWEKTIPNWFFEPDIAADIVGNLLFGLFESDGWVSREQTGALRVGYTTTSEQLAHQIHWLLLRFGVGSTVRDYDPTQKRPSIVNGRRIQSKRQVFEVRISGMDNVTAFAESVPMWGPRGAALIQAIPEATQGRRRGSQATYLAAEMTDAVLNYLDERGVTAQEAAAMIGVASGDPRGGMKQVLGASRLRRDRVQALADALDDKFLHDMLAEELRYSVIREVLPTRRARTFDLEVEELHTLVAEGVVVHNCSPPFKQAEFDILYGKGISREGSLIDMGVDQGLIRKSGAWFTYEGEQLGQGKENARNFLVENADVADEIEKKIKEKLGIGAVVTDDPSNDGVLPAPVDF
# [16] = target: T3, Replicative DNA helicase DnaB (Mycobacterium tuberculosis, UniProt P9WMR3); test: DnaB intein splicing inhibitors, dose response, biochemical, cell-free fluorescence (AID 449749); format: functional
# T3 sequence (P9WMR3 whole entry): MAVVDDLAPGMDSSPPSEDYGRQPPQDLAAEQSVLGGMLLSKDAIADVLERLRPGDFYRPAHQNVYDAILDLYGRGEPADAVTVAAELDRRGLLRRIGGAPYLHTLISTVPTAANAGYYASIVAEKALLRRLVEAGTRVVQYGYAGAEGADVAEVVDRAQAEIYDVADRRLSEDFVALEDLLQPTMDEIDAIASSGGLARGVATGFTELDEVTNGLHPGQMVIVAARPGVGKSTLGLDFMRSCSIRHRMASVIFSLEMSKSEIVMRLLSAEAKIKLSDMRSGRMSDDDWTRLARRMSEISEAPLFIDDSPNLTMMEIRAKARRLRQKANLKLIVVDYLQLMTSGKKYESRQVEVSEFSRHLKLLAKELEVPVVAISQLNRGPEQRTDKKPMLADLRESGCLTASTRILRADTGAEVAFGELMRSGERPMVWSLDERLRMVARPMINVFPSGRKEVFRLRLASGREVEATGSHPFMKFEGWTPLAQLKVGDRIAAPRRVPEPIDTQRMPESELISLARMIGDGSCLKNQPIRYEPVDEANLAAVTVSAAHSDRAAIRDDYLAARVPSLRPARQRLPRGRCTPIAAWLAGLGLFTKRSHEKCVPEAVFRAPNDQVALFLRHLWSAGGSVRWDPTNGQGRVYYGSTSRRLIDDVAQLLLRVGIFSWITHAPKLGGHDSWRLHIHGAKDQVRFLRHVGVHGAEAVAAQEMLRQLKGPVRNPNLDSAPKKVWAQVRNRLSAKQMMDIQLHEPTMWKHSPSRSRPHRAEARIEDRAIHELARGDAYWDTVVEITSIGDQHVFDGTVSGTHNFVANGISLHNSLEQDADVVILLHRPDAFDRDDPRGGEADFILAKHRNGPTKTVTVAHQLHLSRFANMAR
# [17] = target: Glyceraldehyde-3-phosphate dehydrogenase (Homo sapiens, UniProt P04406)
# [18] = target: T4, Rac GTPase-activating protein 1 (Homo sapiens, UniProt Q9H0H5); test: blockers of MgcRacGAP-driven Rac1 GTP hydrolysis – biochemical, ADP Hunter fluorescence, primary and confirmatory, confirmation (AID 624330); format: functional
# T4 sequence (Q9H0H5 whole entry): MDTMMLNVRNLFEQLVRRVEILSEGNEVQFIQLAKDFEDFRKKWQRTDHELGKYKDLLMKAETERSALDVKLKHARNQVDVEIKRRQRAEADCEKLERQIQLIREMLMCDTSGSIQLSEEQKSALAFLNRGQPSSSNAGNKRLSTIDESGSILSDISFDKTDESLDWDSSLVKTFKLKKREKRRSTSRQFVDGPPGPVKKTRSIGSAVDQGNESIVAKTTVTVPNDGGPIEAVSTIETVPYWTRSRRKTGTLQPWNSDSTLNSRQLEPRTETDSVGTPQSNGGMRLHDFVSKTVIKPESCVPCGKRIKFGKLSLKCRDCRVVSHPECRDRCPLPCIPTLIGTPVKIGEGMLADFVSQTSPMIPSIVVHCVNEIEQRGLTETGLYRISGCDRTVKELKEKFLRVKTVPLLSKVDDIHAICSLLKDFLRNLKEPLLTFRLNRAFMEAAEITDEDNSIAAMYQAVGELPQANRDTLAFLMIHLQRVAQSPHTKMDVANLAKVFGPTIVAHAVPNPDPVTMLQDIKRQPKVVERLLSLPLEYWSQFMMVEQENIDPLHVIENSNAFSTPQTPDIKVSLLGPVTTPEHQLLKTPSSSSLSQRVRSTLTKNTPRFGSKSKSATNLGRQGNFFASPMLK
# Chain of Genome polyprotein (P29990 2492-3391 limits assumed): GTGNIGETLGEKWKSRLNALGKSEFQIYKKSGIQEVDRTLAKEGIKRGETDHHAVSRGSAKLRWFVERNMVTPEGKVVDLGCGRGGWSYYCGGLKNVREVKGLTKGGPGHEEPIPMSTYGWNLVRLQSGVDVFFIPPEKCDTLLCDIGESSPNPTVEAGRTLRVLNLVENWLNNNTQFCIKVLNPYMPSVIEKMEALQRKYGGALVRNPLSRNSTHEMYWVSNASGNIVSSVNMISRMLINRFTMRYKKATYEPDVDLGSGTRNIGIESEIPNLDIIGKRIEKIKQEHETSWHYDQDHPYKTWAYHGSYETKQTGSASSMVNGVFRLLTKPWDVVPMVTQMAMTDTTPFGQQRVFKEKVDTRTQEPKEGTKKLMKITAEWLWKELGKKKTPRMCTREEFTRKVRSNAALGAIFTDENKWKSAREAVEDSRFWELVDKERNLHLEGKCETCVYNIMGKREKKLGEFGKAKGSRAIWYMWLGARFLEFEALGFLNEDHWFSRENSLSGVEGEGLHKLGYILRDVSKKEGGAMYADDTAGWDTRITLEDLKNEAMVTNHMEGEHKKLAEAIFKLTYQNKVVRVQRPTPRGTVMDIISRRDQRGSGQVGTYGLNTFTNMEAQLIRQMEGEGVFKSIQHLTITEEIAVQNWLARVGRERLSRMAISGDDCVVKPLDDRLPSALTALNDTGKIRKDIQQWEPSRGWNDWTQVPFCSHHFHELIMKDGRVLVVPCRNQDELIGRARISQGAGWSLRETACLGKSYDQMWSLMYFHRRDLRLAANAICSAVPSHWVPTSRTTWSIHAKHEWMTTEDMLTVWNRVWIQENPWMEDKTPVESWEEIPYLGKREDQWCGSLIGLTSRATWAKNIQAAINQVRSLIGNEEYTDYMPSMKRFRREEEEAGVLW
# Chain of Glyceraldehyde-3-phosphate dehydrogenase (P04406 whole entry): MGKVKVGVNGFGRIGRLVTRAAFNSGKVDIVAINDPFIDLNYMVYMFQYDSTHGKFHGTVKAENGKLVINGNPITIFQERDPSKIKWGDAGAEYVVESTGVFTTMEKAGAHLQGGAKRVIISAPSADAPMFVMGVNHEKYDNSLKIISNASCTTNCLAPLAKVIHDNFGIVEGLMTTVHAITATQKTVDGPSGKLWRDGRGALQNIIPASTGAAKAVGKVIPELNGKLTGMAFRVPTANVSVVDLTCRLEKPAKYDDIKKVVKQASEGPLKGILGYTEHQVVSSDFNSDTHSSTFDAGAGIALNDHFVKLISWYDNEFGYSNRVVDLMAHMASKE
# Chain of Large T antigen (P03070 whole entry): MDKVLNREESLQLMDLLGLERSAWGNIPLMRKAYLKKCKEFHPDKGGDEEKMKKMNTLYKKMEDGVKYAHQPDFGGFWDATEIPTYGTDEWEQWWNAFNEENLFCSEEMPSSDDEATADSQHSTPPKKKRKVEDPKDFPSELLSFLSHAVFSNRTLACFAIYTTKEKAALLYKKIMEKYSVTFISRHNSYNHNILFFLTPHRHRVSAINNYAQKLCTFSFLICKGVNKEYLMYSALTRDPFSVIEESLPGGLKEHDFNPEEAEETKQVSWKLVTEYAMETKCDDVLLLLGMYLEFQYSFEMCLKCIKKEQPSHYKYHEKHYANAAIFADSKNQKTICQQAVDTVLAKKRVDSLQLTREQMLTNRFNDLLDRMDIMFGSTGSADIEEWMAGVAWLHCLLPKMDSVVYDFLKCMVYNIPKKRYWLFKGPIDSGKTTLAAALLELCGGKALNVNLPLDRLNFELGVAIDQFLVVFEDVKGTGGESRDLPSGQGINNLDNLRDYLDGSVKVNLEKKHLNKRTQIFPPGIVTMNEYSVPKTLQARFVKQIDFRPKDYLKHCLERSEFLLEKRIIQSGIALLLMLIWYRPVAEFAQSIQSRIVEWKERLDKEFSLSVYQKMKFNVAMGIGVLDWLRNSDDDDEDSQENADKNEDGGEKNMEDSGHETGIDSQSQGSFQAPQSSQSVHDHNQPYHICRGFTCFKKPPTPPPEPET
# Chain of FAD-linked sulfhydryl oxidase ALR (P55789 whole entry): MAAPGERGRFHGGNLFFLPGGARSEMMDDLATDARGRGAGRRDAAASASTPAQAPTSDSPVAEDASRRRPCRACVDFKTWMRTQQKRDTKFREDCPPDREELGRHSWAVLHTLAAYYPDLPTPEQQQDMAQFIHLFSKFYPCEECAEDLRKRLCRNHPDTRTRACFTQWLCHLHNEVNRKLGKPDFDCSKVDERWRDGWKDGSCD
# Chain of Cytochrome P450 3A4 (P08684 whole entry): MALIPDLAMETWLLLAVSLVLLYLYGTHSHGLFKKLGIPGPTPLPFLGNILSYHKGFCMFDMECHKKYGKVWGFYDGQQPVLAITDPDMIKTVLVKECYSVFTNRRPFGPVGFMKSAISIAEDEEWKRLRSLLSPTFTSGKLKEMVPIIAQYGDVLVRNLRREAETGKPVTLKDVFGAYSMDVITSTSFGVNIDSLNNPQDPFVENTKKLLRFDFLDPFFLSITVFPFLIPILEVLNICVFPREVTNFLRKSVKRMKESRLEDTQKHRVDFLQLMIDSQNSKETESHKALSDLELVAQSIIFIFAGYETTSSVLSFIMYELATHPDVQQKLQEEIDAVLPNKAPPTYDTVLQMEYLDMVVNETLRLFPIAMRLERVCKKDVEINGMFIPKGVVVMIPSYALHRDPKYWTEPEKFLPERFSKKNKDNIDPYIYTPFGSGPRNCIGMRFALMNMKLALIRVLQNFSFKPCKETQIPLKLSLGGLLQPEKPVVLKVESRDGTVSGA
# Chain of Paired box protein Pax-8 (Q06710 whole entry): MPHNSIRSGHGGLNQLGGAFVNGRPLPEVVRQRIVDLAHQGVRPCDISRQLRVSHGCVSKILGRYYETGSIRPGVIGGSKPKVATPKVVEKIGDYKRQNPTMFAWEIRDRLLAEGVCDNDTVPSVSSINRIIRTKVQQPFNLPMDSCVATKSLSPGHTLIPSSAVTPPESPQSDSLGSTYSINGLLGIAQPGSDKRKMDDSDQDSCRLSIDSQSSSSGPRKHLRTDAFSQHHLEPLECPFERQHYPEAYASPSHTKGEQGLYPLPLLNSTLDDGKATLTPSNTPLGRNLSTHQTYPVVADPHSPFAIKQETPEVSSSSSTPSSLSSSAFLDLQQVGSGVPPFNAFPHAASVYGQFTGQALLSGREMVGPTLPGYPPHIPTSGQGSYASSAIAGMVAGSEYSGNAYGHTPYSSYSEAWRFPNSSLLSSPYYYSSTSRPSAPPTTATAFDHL
# Chain of Luciferin 4-monooxygenase (P08659 whole entry): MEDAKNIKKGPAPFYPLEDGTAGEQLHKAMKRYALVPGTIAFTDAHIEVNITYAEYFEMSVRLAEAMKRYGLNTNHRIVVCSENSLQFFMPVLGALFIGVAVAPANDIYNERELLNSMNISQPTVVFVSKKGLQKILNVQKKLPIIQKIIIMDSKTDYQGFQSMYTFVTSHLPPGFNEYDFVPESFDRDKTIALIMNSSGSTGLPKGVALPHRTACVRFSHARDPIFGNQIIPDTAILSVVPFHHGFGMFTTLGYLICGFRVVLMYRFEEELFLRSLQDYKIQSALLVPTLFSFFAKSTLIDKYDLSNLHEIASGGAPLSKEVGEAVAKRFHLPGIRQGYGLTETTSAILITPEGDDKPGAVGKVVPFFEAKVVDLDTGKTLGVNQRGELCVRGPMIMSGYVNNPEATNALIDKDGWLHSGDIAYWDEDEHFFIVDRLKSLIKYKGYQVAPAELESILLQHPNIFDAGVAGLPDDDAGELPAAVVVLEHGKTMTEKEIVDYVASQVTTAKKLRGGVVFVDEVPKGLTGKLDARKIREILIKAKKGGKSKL
structure (smiles),measurement,setting,value
Cc1n[nH]c(O)c1C(c1ccc(-c2ccc(Cl)c(C(=O)O)c2)o1)c1c(O)n[nH]c1C,IC50,Genome polyprotein,> 100 µM (active)
CC(C)C1Cc2c(sc3c2c(=O)n(-c2ccccc2)c2n[nH]c(=S)n32)CO1 (configuration not stated),IC50,Large T antigen,29.5 µM (active)
COc1cc(/C=N/NC(=O)c2cc(C3CC3)[nH]n2)ccc1O,IC50,Large T antigen,7.28 µM (active)
same,AC50,[1],1.74 µM (active)
Cc1cc(C(C2C(=O)CC(C)(C)CC2=O)C2C(=O)CC(C)(C)CC2=O)cc(C)c1OC(F)F,IC50,Genome polyprotein,43.5 µM (active)
Cc1cccc(C(=N)NOC(=O)c2ccoc2C)c1,EC50,cells [2],> 350 µM (not active)
same,EC50,[3],3.65 µM (active)
same,EC50,cells [4],7.1 µM (active)
same,EC50,[5],3.25 µM (active)
Cc1ccc(-c2nn(-c3ccccc3)cc2CSC(=N)N)cc1,CC50,[6],14.9 µM (active)
same,EC50,[7],> 120 µM (not active)
same,IC50,[8],> 20 µM (inactive)
same,EC50,[9],17.4 µM (active)
same,AC50,Cytochrome P450 3A4,39.8 µM (inconclusive)
same,EC50,[10],> 120 µM (not active)
same,EC50,[11],> 120 µM (not active)
same,EC50,[12],17.1 µM (active)
O=C1CCCN1CCCNC(=S)Nc1ccc(Nc2ccccc2)cc1,IC50,Large T antigen,18.7 µM (active)
COc1ccccc1/C=C1/C(=O)ON=C1C,IC50,Genome polyprotein,> 100 µM (active)
CCOC(=O)C1=C(C)N=C(C)/C(=C(/O)OCC)C1C(=O)OCC(=O)N(C)C1CCS(=O)(=O)C1 (configuration not stated),EC50,cells [2],> 350 µM (not active)
same,EC50,cells [4],> 350 µM (not active)
Cc1ccc(N(C)S(=O)(=O)c2ccc(-c3cc(C)no3)s2)cc1,EC50,cells [2],> 350 µM (not active)
same,EC50,cells [4],> 350 µM (not active)
COc1ccc(C(=O)NN(C)c2nc(C(F)(F)F)nc3ccccc23)cc1,EC50,BJ [13],< 0.12 µM (active)
same,EC50,BJ [14],0.45 µM (active)
same,EC50,[15],< 0.12 µM (active)
same,AC50,Paired box protein Pax-8,1.79 µM (active)
CCOc1ccc(NCc2cccn2-c2nnc(N3CCC(C(=O)NCCCN4CCCCC4CC)CC3)s2)cc1 (configuration not stated),IC50,Large T antigen,11.7 µM (active)
CC1=NN(c2ccccc2)C(=O)/C1=C/c1cccs1,EC50,Protein RecA,4.53 µM (active)
same,AC50,[16],4.26 µM (active)
same,IC50,Genome polyprotein,46.8 µM (active)
CC/N=c1\scc(C)n1/N=C/c1cc(Br)c(O)c(Br)c1,CC50,[6],13.3 µM (active)
same,IC50,Large T antigen,21.6 µM (active)
COc1ccc(C(CC(=O)O)C(N)=O)cc1 (configuration not stated),IC50,[17],> 100 µM (not active)
O=C(CN1CCCCC1)N1CCCc2ccccc21,EC50,cells [2],> 350 µM (not active)
same,EC50,cells [4],> 350 µM (not active)
COc1cc(/C=C2\SC(Nc3ccc(Cl)c(C(=O)O)c3)=NC2=O)c(Br)c(Br)c1O,IC50,Large T antigen,3.27 µM (active)
same,IC50,[18],13.9 µM (active)
COc1cc(/C=N/NC(=O)c2cccc(S(=O)(=O)N3CCCC3)c2)ccc1O,IC50,Large T antigen,9.24 µM (active)
same,AC50,[1],1.79 µM (active)
COc1cc(/C=C2\C(=N)N3N=C(CC(=O)N4CCCCC4)SC3=NC2=O)ccc1O,IC50,Large T antigen,22.5 µM (active)
COc1cccc(/C=C2\SC(=S)N(C(Cc3ccccc3)C(=O)O)C2=O)c1 (configuration not stated),IC50,Genome polyprotein,44.4 µM (active)
CC(C)NC(=O)NC(=O)CSc1nnc(-c2ccccc2F)n1N,EC50,cells [2],> 350 µM (not active)
same,EC50,cells [4],> 350 µM (not active)
CCN(CC)c1ccc(NC(=O)COC(=O)c2ccc3ccccc3n2)cc1,IC50,Large T antigen,48.2 µM (active)
CCN1CCN(C2=C(Cl)C(=O)N(c3cccc(OC)c3)C2=O)CC1,IC50,[17],> 50 µM (inconclusive)
O=C(O)Cc1csc(COc2ccccc2)n1,IC50,[17],> 100 µM (not active)
